pIC50: −log10 of the molar value.

The assay has as its target T1, menin-MLL interaction (Homo sapiens, UniProt O00255).
T1 sequence (O00255 1-610): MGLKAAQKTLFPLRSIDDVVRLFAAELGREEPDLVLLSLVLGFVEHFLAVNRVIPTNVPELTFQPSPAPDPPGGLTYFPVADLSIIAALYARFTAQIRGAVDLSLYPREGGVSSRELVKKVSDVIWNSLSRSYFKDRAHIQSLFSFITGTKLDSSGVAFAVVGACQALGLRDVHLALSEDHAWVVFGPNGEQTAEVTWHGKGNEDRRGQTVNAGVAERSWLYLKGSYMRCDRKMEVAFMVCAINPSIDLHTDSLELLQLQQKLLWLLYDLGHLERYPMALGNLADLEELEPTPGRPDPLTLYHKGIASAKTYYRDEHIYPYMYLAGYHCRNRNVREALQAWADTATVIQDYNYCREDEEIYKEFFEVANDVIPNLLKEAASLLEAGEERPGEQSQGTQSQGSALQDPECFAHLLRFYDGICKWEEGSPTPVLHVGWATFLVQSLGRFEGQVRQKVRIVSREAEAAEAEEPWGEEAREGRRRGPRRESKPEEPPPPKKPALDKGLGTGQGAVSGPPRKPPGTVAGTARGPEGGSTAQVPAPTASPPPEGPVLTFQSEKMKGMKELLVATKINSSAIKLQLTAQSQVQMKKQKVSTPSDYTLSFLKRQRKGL
Briefly: biochemical.
Source text: Compounds that inhibit the interaction decrease the fluorescence anisotropy which is being used as a read-out for compound screening and for IC50 determination.
In turn, `N#Cc1nc2cc(CN3CCC(Nc4ncnc5sc(CC(F)(F)F)cc45)CC3)ccc2[nH]1` [Compound 249] gave a pIC50 of 5.70 to 6.30.
In the case of `O=c1[nH]c2ccc(CN3CCC(Nc4ncnc5sc(CC(F)(F)F)cc45)CC3)cc2[nH]1` [Compound 250], the negative logarithm of the IC50 (pIC50) is 5.70 to 6.30.
With `CC(C)NCC(O)Cn1c(C#N)cc2cc(CN3CCC(Nc4ncnc5sc(CC(F)(F)F)cc45)CC3)ccc21` (stereo not shown) [Compound 251], the negative-log IC50 (pIC50) is 5.70 to 6.30.
To `N#CCc1ccc2[nH]cc(CN3CCC(Nc4ncnc5sc(CC(F)(F)F)cc45)CC3)c2c1` [Compound 252] belongs 5.70 to 6.30; to `NS(=O)(=O)c1ccc(CN2CCC(CNc3ncnc4sc(CC(F)(F)F)cc34)CC2)c(Cl)c1` [Compound 253], 6.30 to 7.00; to `FC(F)(F)Cc1cc2c(NCC3CCN(Cc4ccc(Cl)cc4Cl)CC3)ncnc2s1` [Compound 254], 6.30 to 7.00.
In the case of `FC(F)(F)Cc1cc2c(NCC3CCN(Cc4ccc(N5CCCCC5)cc4)CC3)ncnc2s1` [Compound 255] it was 6.30 to 7.00; in that of `N#Cc1ccc(CN2CCC(CNc3ncnc4sc(CC(F)(F)F)cc34)CC2)c(Cl)c1` [Compound 256], 6.30 to 7.00; in that of `COc1ccc(CN2CCC(CNc3ncnc4sc(CC(F)(F)F)cc34)CC2)c(Cl)c1` [Compound 257], 6.30 to 7.00.
To `Cc1ccccc1CN1CCC(CNc2ncnc3sc(CC(F)(F)F)cc23)CC1` [Compound 258] belongs 6.30 to 7.00; to `FC(F)(F)Cc1cc2c(NCC3CCN(Cc4ccc(N5CCOCC5)cc4Cl)CC3)ncnc2s1` [Compound 259], 6.30 to 7.00.
Compound `FC(F)(F)Cc1cc2c(NCC3CCN(Cc4ccccc4Cl)CC3)ncnc2s1` [Compound 260] had a negative-log IC50 (pIC50) of 6.30 to 7.00.
In the case of `FC(F)(F)Cc1cc2c(NCC3CCN(Cc4ccc(Cl)cc4)CC3)ncnc2s1` [Compound 261] it was 6.30 to 7.00; in that of `NS(=O)(=O)c1ccc(CN2CCC(CNc3ncnc4sc(CC(F)(F)F)cc34)CC2)cc1` [Compound 262], 6.30 to 7.00; in that of `N#Cc1ccc(CN2CCC(CNc3ncnc4sc(CC(F)(F)F)cc34)CC2)cc1` [Compound 263], 6.30 to 7.00.
With `CCCCN(CC1CCN(Cc2ccc(C#N)cc2)CC1)c1ncnc2sc(CC(F)(F)F)cc12` [Compound 264], the pIC50 is 5.70 to 6.30.
In the case of `NCc1ccc(CN2CCC(CNc3ncnc4sc(CC(F)(F)F)cc34)CC2)cc1` [Compound 265] it was 5.70 to 6.30.
In the case of `OCc1ccc(CN2CCC(CNc3ncnc4sc(CC(F)(F)F)cc34)CC2)cc1` [Compound 266] it was 5.70 to 6.30; in that of `CN1CCN(Cc2ccc(CN3CCC(CNc4ncnc5sc(CC(F)(F)F)cc45)CC3)cc2)CC1` [Compound 267], 5.70 to 6.30.
In turn, `FC(F)(F)Cc1cc2c(NCC3CCN(Cc4ccc(C(F)(F)F)cc4Cl)CC3)ncnc2s1` [Compound 268] gave a pIC50 of 5.70 to 6.30.
To `FC(F)(F)Cc1cc2c(NCC3CCN(Cc4ccc(Cl)cc4C(F)(F)F)CC3)ncnc2s1` [Compound 269] belongs 5.70 to 6.30; to `CC(=O)c1ccc(CN2CCC(CNc3ncnc4sc(CC(F)(F)F)cc34)CC2)cc1` [Compound 270], 5.70 to 6.30.
Consider `FC(F)(F)Cc1cc2c(NCC3CCN(Cc4ccc(OC(F)(F)F)cc4)CC3)ncnc2s1` [Compound 271], for which the pIC50 is 5.70 to 6.30.
Turning to `FC(F)(F)Cc1cc2c(NCC3CCN(Cc4ccc(CN5CCOCC5)cc4)CC3)ncnc2s1` [Compound 272], the negative logarithm of the IC50 (pIC50) was 5.70 to 6.30.
In the case of `COc1ccc(CN2CCC(CNc3ncnc4sc(CC(F)(F)F)cc34)CC2)cc1` [Compound 273] it was 5.70 to 6.30; in that of `FC(F)(F)Cc1cc2c(NCC3CCN(Cc4ccccc4C(F)(F)F)CC3)ncnc2s1` [Compound 274], 5.70 to 6.30; in that of `Cc1ccc(CN2CCC(CNc3ncnc4sc(CC(F)(F)F)cc34)CC2)cc1` [Compound 275], 5.70 to 6.30.
To `FC(F)(F)Cc1cc2c(NCC3CCN(Cc4ccc(C(F)(F)F)cc4)CC3)ncnc2s1` [Compound 276] belongs 5.70 to 6.30; to `FC(F)(F)Cc1cc2c(NCC3CCN(Cc4ccccc4)CC3)ncnc2s1` [Compound 277], 5.70 to 6.30.
In the case of `N#Cc1cc2cc(CN3CCC(Nc4c(CO)cnc5sc(CC(F)(F)F)cc45)CC3)ccc2[nH]1` [Compound 278] it was over 7.00; in that of `N#Cc1cc2cc(CN3CCC(Nc4c(C#N)cnc5sc(CC(F)(F)F)cc45)CC3)ccc2[nH]1` [Compound 279], over 7.00.
On to `OCc1cnc2sc(CC(F)(F)F)cc2c1NC1CCN(Cc2ccccc2)CC1` [Compound 280], for which the negative-log IC50 (pIC50) is over 7.00.
`COCc1cnc2sc(CC(F)(F)F)cc2c1NC1CCN(Cc2ccc3[nH]c(C#N)cc3c2)CC1` [Compound 281] had a negative-log IC50 (pIC50) of 6.30 to 7.00.
To `CCCc1cc2c(NC3CCN(Cc4ccccc4)CC3)ccnc2s1` [Compound 282] belongs 5.70 to 6.30.
In the case of `O=C(Cc1ccc(NS(=O)(=O)N2CCCCC2)cc1Cl)N1CCN(C2=NC=NC3SC(CC(F)(F)F)=CC23)CC1` (stereo not shown) [Compound 284] it was over 7.00; in that of `O=C(Cc1ccc(NS(=O)(=O)C2CC2)cc1Cl)N1CCN(C2=NC=NC3SC(CC(F)(F)F)=CC23)CC1` (stereo not shown) [Compound 285], over 7.00; in that of `NS(=O)(=O)Cc1ccc(CC(=O)N2CCN(C3=NC=NC4SC(CC(F)(F)F)=CC34)CC2)c(Cl)c1` (stereo not shown) [Compound 286], over 7.00.
To `O=C(Cc1ccc(NS(=O)(=O)CC(F)(F)F)cc1Cl)N1CCN(C2=NC=NC3SC(CC(F)(F)F)=CC23)CC1` (stereo not shown) [Compound 287] belongs 5.70 to 6.30.
On to `Cc1c(CN2CC[C@@H](Nc3ncnc4sc(CC(F)(F)F)cc34)[C@H](NCCc3ccccc3)C2)ccc2c1cc(C#N)n2CC(N)=O` [Compound 288], for which the negative logarithm of the IC50 (pIC50) was over 7.00.
To `N#Cc1cc2cc(CN3CCC(Nc4ncnc5sc(CC(F)(F)F)cc45)C(NCc4cccc(F)c4)C3)ccc2[nH]1` (stereo not shown) [Compound 289] belongs over 7.00; to `N#Cc1cc2c(CO)c(CN3CCC(Nc4ncnc5sc(CC(F)(F)F)cc45)CC3)ccc2[nH]1` [Compound 290], over 7.00.
To `N#Cc1cc2cc(CN3CCC(Nc4ncnc5sc(CC(F)(F)F)cc45)CC3)ccc2n1CC(=O)NC1CC1` [Compound 291] belongs over 7.00; to `CC(C)OC(CO)Cn1c(C#N)cc2cc(CN3CCC(Nc4ncnc5sc(CC(F)(F)F)cc45)CC3)ccc21` (stereo not shown) [Compound 292], over 7.00.
`N#Cc1cc2c(C3CC3)c(CN3CCC(Nc4ncnc5sc(CC(F)(F)F)cc45)CC3)ccc2[nH]1` [Compound 293] showed a pIC50 of over 7.00.
To `N#Cc1cc2c(CN)c(CN3CCC(Nc4ncnc5sc(CC(F)(F)F)cc45)CC3)ccc2[nH]1` [Compound 294] belongs over 7.00.
In turn, `CCc1c(CN2CCC(Nc3ncnc4sc(CC(F)(F)F)cc34)CC2)ccc2[nH]c(C#N)cc12` [Compound 295] showed a pIC50 of over 7.00.
Take `N#Cc1cc2c(CCO)c(CN3CCC(Nc4ncnc5sc(CC(F)(F)F)cc45)CC3)ccc2[nH]1` [Compound 296]: the negative logarithm of the IC50 (pIC50) was over 7.00.
To `N#Cc1cc2cc(CN3CCC(Nc4ncnc5sc(CC(F)(F)F)cc45)CC3)ccc2n1CC(CO)OC(F)F` (stereo not shown) [Compound 297] belongs over 7.00; to `N#Cc1cc2c(Br)c(CN3CCC(Nc4ncnc5sc(CC(F)(F)F)cc45)CC3)ccc2[nH]1` [Compound 298], over 7.00.
For the compound `Cc1c(CN2CCC(Nc3ncnc4sc(CC(F)(F)F)cc34)CC2)ccc2c1cc(C#N)n2CCO` [Compound 299], the pIC50 was over 7.00.
In the case of `Cc1c(CN2CCC(Nc3ncnc4sc(CC(F)(F)F)cc34)CC2)ccc2c1cc(C#N)n2CC(O)CO` (stereo not shown) [Compound 300] it was over 7.00; in that of `Cc1c(CN2CCC(Nc3ncnc4sc(CC(F)(F)F)cc34)CC2)ccc2c1cc(C#N)n2CC(N)=O` [Compound 301], over 7.00; in that of `Cc1c(CN2CCC(Nc3ncnc4sc(CC(F)(F)F)cc34)CC2)ccc2c1cc(C#N)n2CC(CO)OC(C)C` (stereo not shown) [Compound 302], over 7.00.
Compound `Cc1c(CN2CCC(Nc3ncnc4sc(CC(F)(F)F)cc34)CC2)ccc2c1cc(C#N)n2Cc1cn(C)nn1` [Compound 303] showed a pIC50 of over 7.00.
In the case of `Cc1c(CN2CCC(Nc3ncnc4sc(CC(F)(F)F)cc34)CC2)ccc2c1cc(C#N)n2CCn1cncn1` [Compound 304] it was over 7.00; in that of `N#Cc1cc2c(C(F)F)c(CN3CCC(Nc4ncnc5sc(CC(F)(F)F)cc45)CC3)ccc2[nH]1` [Compound 305], over 7.00.
Take `C=C(Br)Cn1c(C#N)cc2cc(CN3CCC(Nc4ncnc5sc(CC(F)(F)F)cc45)CC3)ccc21` [Compound 306]: the pIC50 is over 7.00.
In the case of `N#Cc1cc2c(Br)c(CN3CCC(Nc4ncnc5sc(CC(F)(F)F)cc45)CC3)ccc2n1CC(N)=O` [Compound 307] it was over 7.00; in that of `CCCCC(O)(CO)Cn1c(C#N)cc2cc(CN3CCC(Nc4ncnc5sc(CC(F)(F)F)cc45)CC3)ccc21` (stereo not shown) [Compound 308], over 7.00; in that of `Cc1c(CN2CCC(Nc3ncnc4sc(CC(F)(F)F)cc34)CC2)ccc2c1cc(C#N)n2Cc1cn[nH]c1` [Compound 309, 1-((1H-pyrazol-4-yl)methyl)-4-methyl-5-((4-((6-(2,2,2-trifluoroethyl)thieno[2,3-d]pyrimidin-4-yl)amino)piperidin-1-yl)methyl)-1H-indole-2-carbonitrile], over 7.00.
To `N#Cc1cc2c(C(F)F)c(CN3CCC(Nc4ncnc5sc(CC(F)(F)F)cc45)CC3)ccc2n1CC(N)=O` [Compound 310] belongs over 7.00.

For orientation: pIC50 means −log10 of the IC50, conventionally taken in molar units. Read a high pIC50 as a low IC50.

(Values after patent publication US9505781B2, “Compositions comprising thienopyrimidine and thienopyridine compounds and methods of use thereof” (The Regents of the University of Michigan, priority 2013, dated 2016).)
